Test results reported in patent US8546608B2, “Proteasome inhibitors and methods of using the same” (Cephalon, Inc., priority 2003, dated 2013).

What was measured:
[1] = target: T1, proteasome in Molt-4 cells (human leukemia) (Homo sapiens, UniProt P20618+P28074); type: cell-based; conditions: assay of Example E, inhibition of MOLT4; read-out: MOLT4 (EC50)
T1 sequence (P28074 60-263): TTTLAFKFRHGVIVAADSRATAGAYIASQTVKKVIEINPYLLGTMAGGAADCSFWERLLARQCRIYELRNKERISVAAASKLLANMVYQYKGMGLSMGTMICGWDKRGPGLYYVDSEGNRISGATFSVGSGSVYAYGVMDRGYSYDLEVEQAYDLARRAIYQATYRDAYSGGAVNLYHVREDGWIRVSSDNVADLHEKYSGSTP
T1 sequence (P20618 29-241): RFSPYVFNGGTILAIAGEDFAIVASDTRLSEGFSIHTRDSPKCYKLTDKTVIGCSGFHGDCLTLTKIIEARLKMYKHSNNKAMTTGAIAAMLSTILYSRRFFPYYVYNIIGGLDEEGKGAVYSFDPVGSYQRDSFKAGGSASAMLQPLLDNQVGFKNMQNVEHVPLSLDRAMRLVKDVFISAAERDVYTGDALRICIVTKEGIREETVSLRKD
Outline: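 Intact Molt-4 cells (6×10^6 cells/mL) in HEPES-buffered saline were preincubated with inhibitor 15 min at 37 °C, then given cell-permeable MeOSuc-FLF-AFC at 25 μM final.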

[2] = target: T2, 20S Human Erythrocyte Proteasome (HEP) (Homo sapiens, UniProt P20618+P28074); test: Chymotrypsin-like activity of 20S Human Erythrocyte Proteasome (HEP), IC50 determination; type: biochemical; conditions: assay of Example C, inhibition of HEP
T2 construct: 20S Human Erythrocyte Proteasome (HEP), purchased from Immatics Biotechnologies Inc; purchased Immatics Biotechnologies Inc., Tübingen, Germany; host or cells: human erythrocytes (natural source)
Outline: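 20S proteasome at 0.2 μg/mL (about 0.6 nM catalytic sites) in 20 mM Tris with 0.04% SDS, preincubated 15 min at 37° C with inhibitor before Suc-LLVY-AMC (100 μM final). AMC fluorescence read in the linear range; triplicates, IC50 from concentration series.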

Compound | EC50 [1] | IC50 [2]
CCCCC[C@H]1CC[C@H](C(=O)N[C@@H](CCCNC(=N)N[N+](=O)[O-])C(=O)N[C@@H](CC(C)C)B2O[C@@H]3C[C@@H]4C[C@@H](C4(C)C)[C@]3(C)O2)CC1 [D.3.11, trans-4-Pentylcyclohexanecarboxamide, N-[(1S)-1-[[[(1R)-1-[(3aS,4S,6S,7aR)-hexahydro-3a,5,5-trimethyl-4,6-methano-1,3,2-benzodioxaborol-2-yl]-3-methylbutyl]amino]carbonyl]-4-[[imino(nitroamino)methyl]amino]butyl]] | < 200 nM | < 10 nM
CCCC/C=C/C(=O)N[C@@H](CCCNC(=N)N[N+](=O)[O-])C(=O)N[C@@H](CC(C)C)B(O)O [E.2.21, Boronic acid, [(1R)-1-[[(2S)-5-[[imino(nitroamino)methyl]amino]-2-[(hept-2-enoyl)amino]-1-oxopentyl]amino]-3-methylbutyl]] | 2000 to 10000 nM | < 10 nM
CCCCCCCCCCS(=O)(=O)N[C@@H](CCCNC(=N)N[N+](=O)[O-])C(=O)N[C@@H](CC(C)C)B1O[C@@H]2C[C@@H]3C[C@@H](C3(C)C)[C@]2(C)O1 [D.4.3, Decane-1-sulfonamide, N-[(1S)-1-[[[(1R)-1-[(3aS,4S,6S,7aR)-hexahydro-3a,5,5-trimethyl-4,6-methano-1,3,2-benzodioxaborol-2-yl]-3-methylbutyl]amino]carbonyl]-4-[[imino(nitroamino)methyl]amino]butyl]] | < 200 nM | < 10 nM
CCCCC(C(=O)N[C@@H](CCCNC(=N)N[N+](=O)[O-])C(=O)N[C@@H](CC(C)C)B(O)O)C1CCCC1 (mixture of isomers) [E.2.59, Boronic acid, [(1R)-1-[[(2S)-5-[[imino(nitroamino)methyl]amino]-2-[[(RS)-2-cyclopentylhexanoyl]amino]-1-oxopentyl]amino]-3-methylbutyl]] | 2000 to 10000 nM | < 10 nM
CCN(CC)c1ccc(C(=O)N[C@@H](CCCNC(=N)N[N+](=O)[O-])C(=O)N[C@@H](CC(C)C)B(O)O)cc1 [D.7.8, Boronic acid, [(1R)-1-[[(2S)-5-[[imino(nitroamino)methyl]amino]-2-[(4-diethylaminobenzoyl)amino]-1-oxopentyl]amino]-3-methylbutyl]] | > 10000 nM | < 10 nM
Cc1cc(C(=O)N[C@@H](CCCNC(=N)N[N+](=O)[O-])C(=O)N[C@@H](CC(C)C)B(O)O)ccc1F [D.7.37] | > 10000 nM | < 10 nM
CSCC(=O)N[C@@H](CCCNC(=N)N[N+](=O)[O-])C(=O)N[C@@H](CC(C)C)B(O)O [E.2.68, Boronic acid, [(1R)-1-[[(2S)-5-[[imino(nitroamino)methyl]amino]-2-[(2-methylsulfanylacetyl)amino]-1-oxopentyl]amino]-3-methylbutyl]] | > 10000 nM | < 10 nM
CC(C)C[C@H](NC(=O)[C@H](CCCNC(=N)N[N+](=O)[O-])NC(=O)/C=C/c1ccc(Br)cc1)B1O[C@@H]2C[C@@H]3C[C@@H](C3(C)C)[C@]2(C)O1 [D.3.92, (E)-3-(4-Bromophenyl)acrylamide,N-[(1S)-1-[[[(1R)-1-[(3aS,4S,6S,7aR)-hexahydro-3a,5,5-trimethyl-4,6-methano-1,3,2-benzodioxaborol-2-yl]-3-methylbutyl]amino]carbonyl]-4-[[imino(nitroamino)methyl]amino]butyl]] | < 200 nM | < 10 nM
CC(C)C[C@H](NC(=O)[C@H](CC(N)=O)NC(=O)c1cnccn1)B1O[C@@H]2C[C@@H]3C[C@@H](C3(C)C)[C@]2(C)O1 [D.8.18, 2-Pyrazinecarboxamide, N-[(1S)-1-[[[(1R)-1-[(3aS,4S,6S,7aR)-hexahydro-3a,5,5-trimethyl-4,6-methano-1,3,2-benzodioxaborol-2-yl]-3-methylbutyl]amino]carbonyl]-2-carbamoylethyl]] | 200 to 2000 nM | < 100 nM
Cc1ccccc1C(=O)N[C@@H](CCCNC(=N)N[N+](=O)[O-])C(=O)N[C@@H](CC(C)C)B(O)O [E.2.15, Boronic acid, [(1R)-1-[[(2S)-5-[[imino(nitroamino)methyl]amino]-2-[(2-methylbenzoyl)amino]-1-oxopentyl]amino]-3-methylbutyl]] | > 10000 nM | < 10 nM
CCCCc1ccc(S(=O)(=O)N[C@@H](CCCNC(=N)N[N+](=O)[O-])C(=O)N[C@@H](CC(C)C)B2O[C@@H]3C[C@@H]4C[C@@H](C4(C)C)[C@]3(C)O2)cc1 [D.4.7, 4-Butyl-benzenesulfonamide, N-[(1S)-1-[[[(1R)-1-[(3aS,4S,6S,7aR)-hexahydro-3a,5,5-trimethyl-4,6-methano-1,3,2-benzodioxaborol-2-yl]-3-methylbutyl]amino]carbonyl]-4-[[imino(nitroamino)methyl]amino]butyl]] | < 200 nM | < 100 nM
CC(C)C[C@H](NC(=O)[C@@H](NC(=O)c1ccc2ccccc2c1)[C@@H](C)O)B1O[C@@H]2C[C@@H]3C[C@@H](C3(C)C)[C@]2(C)O1 [D.3.180, Naphthalene-2-carboxamide,N-[(1S,2R)-1-[[[(1R)-1-[(3aS,4S,6S,7aR)-hexahydro-3a,5,5-trimethyl-4,6-methano-1,3,2-benzodioxaborol-2-yl]-3-methylbutyl]amino]carbonyl]-2-hydroxypropyl]] | < 200 nM | < 10 nM
CC(C)C[C@H](NC(=O)[C@H](CCCNC(=N)N[N+](=O)[O-])NC(=O)CCc1c[nH]c2ccccc12)B1O[C@@H]2C[C@@H]3C[C@@H](C3(C)C)[C@]2(C)O1 [D.3.103, 3-(1H-Indol-3-yl)-propanamide,N-[(1S)-1-[[[(1R)-1-[(3aS,4S,6S,7aR)-hexahydro-3a,5,5-trimethyl-4,6-methano-1,3,2-benzodioxaborol-2-yl]-3-methylbutyl]amino]carbonyl]-4-[[imino(nitroamino)methyl]amino]butyl]] | 200 to 2000 nM | < 10 nM
CCCCCCCCC(=O)N[C@@H](CCCNC(=N)N[N+](=O)[O-])C(=O)N[C@@H](CC(C)C)B1O[C@@H]2C[C@@H]3C[C@@H](C3(C)C)[C@]2(C)O1 [D.3.15, Nonanamide,N-[(1S)-1-[[[(1R)-1-[(3aS,4S,6S,7aR)-hexahydro-3a,5,5-trimethyl-4,6-methano-1,3,2-benzodioxaborol-2-yl]-3-methylbutyl]amino]carbonyl]-4-[[imino(nitroamino)methyl]amino]butyl]] | < 200 nM | < 10 nM
CC(C)C[C@H](NC(=O)[C@H](CCCNC(=N)N[N+](=O)[O-])NC(=O)CCCCCCCCC#N)B(O)O [D.7.61, Boronic acid, [(1R)-1-[[(2S)-5-[[imino(nitroamino)methyl]amino]-2-[(9-cyanononanoyl)amino]-1-oxopentyl]amino]-3-methylbutyl]] | > 10000 nM | < 10 nM
CC(C)C[C@H](NC(=O)[C@H](CCCNC(=N)N[N+](=O)[O-])NC(=O)c1ccc(C(C)C)cc1)B(O)O [D.7.11, Boronic acid, [(1R)-1-[[(2S)-5-[[imino(nitroamino)methyl]amino]-2-[(4-isopropylbenzoyl)amino]-1-oxopentyl]amino]-3-methylbutyl]] | 2000 to 10000 nM | < 10 nM
CCCCCCCCCC(=O)NCC(=O)N[C@@H](CC(C)C)B1O[C@@H]2C[C@@H]3C[C@@H](C3(C)C)[C@]2(C)O1 [D.2.7, Decanamide,N-[1-[[[(1R)-1-[(3aS,4S,6S,7aR)-hexahydro-3a,5,5-trimethyl-4,6-methano-1,3,2-benzodioxaborol-2-yl]-3-methylbutyl]amino]carbonyl]methyl]] | < 200 nM | < 10 nM
